Experimental data published in patent EP4772500A1, “NOVEL ISOXAZOLE COMPOUND AS TM4SF5-SPECIFIC INHIBITOR AND USE THEREOF” (Seoul National University R&DB Foundation, priority 2023, dated 2025).

Test system: TM4SF5-non-expressing cells (SNU449Cp)
Experiment: Western blotting for signaling factor phosphorylation in TM4SF5-non-expressing cells
Assay type: cell-based, human
Description: Cell extracts were obtained from cells grown to a density of 70-80% without any treatment, or from cells treated with vehicle DMSO or drugs at the given concentrations for 24 hours. For the extract of hepatocytes or liver cancer cells, a lysis buffer (150 mM NaCl, 1% NP-40, 50 mM Tris-HCl, 0.25% sodium deoxycholate, pH 7.4) including a protease inhibitor cocktail (GenDEPOT) was used. In addition, after washing animal liver tissue twice with PBS, SDS, Na3VO4, and protease inhibitor cocktails (GenDEPOT) were added to a lysis buffer [50 mM Tris-HCl, pH 7.4, 1% NP40, 0.25% sodium deoxycholate, 150 mM NaCl, 1 mM EDTA (based on 500 ml)], followed by treatment at 4°C for 15 minutes. After centrifugation at 13,000 rpm at 4°C for 30 minutes, only the supernatant was transferred to a new microcentrifuge tube. After quantification using BCA reagent (Thermo Scientific), a 4 × sample buffer [100% glycerol 4 ml, Tris-HCl, pH 6.8, 2.4 ml, SDS 0.8 g, Bromophenol blue 4 mg, betamercaptoethanol 0.4 ml, H2O 3.1 ml (based on 10 ml)] was added, followed by boiling at 100°C for 5 minutes. After performing SDS-PAGE electrophoresis with the above samples and transferring them to Nitrocellulose Membranes Protran™ nitrocellulose membranes (Whatman), pre-treatment was performed with 5% skim milk for 1 hour. After pre-treatment, primary antibodies of p-FAK(Y861) (SC-16663), p-FAK(Y577) (SC-16665), c-Src (SC-8056), STAT3 (SC-8019), p-AKT 1/2/3(S473) (SC-7985), STATS (SC-835), Laminin γ2 (SC-393225), COL1A1 (SC-28657), CCL5(RANTES) (SC-514019) CCL20(MIP-3α) (SC-517441), SIRT1 (SC-74465), ChREBP (SC-515922), SREBP1 (SC-366513), DGAT1 (SC-271934), DGAT2 (SC-293211), MICA/B (SC-137242), SLAMF7 (SC-390840), α-tublin (SC-5286), β-actin (SC-47778), FUCA (SC-365496) (the above from Santa Cruz Biotech, USA), p-FAK(Y397) (cat # 611723), FAK (cat # 610088), p27 (cat # 610242) (the above from BD Transduction, USA), p-FAK(Y925) (#3284) p-c-Src(Y416) (#2101), p-STAT3(Y705) (#9145), p70S6K1 (#9202), p-p70S6K1(T389) (#9205), p-STAT5(Y694) (#9314), ACC (#3676), FASN (#3189), CPT1A (#12252), p-ACC(S79) (#11818), HA (#3724), PD-L1 (#13684), PD-1 (#86163), p-ERK1/2(T202/Y204) (#9101s), ERK1/2 (#9102s) (the above from Cell Signaling Tech., USA), pS10p27(S10) (ab62364), human SLAMF6 (ab224201), TIGIT (ab233404), CD34 (ab81289) (the above from Abcam, UK), mouse SLAMF6 (PA5-87823), NKG2D (PA5-102038) (the above from Thermofisher, USA), α-SMA (Sigma Aldrich, A5228), CCL2 (Invitrogen, MA5-17040), and CD155(PVR) (Biolegend, 337601), HA (Biolegend, USA), Strep-HRP(horse-radish peroxidase), StrepMAB-HRP (IBA, USA), AFP (FineTest, FNab00203) were reacted at 4°C for 15 hours. The next day, secondary antibodies were reacted, and development was performed on X-ray film using ECL (Pierce, USA). Anti-TM4SF5C-ter (epitope region of RKKQDTPH^197) and anti-TM4SF5EC2 (CLMNGEWGYHFEDTAGA^130) were custom-made at a professional antibody production company (Pro-Sci, Poway, CA, USA).
(a) Cell extracts were obtained after treating TM4SF5-non-expressing cells (SNU449Cp) and TM4SF5-expressing cells (SNU449T7) with vehicle (DMSO), ST-2-001, or an ST-2-001-based derivative drug at a concentration of 5 µM for 24 hours. (b) Cell extracts were obtained after treating SNU449Cp and SNU449T7 with DMSO, ST-2-001, ST-3-001, ST-3-006, ST-3-007, ST-3-010, or ST-3-011 at a concentration of 5 µM for 24 hours. (c) Cell extracts were obtained after treating SNU449Cp and SNU449T7 with DMSO, ST-2-001, ST-3-006, or ST-3-011 at the given concentrations for 24 hours. (a-c) Using the cell extracts obtained after the drug treatment, Western blotting was performed for signaling factors whose phosphorylation and activity increase in a TM4SF5-expression dependent manner.

[1] = 5 µM, 24 hours (FIG. 9a-b, blue-lined boxes)
[2] = given concentrations, 24 hours (FIG. 9c)

Row | SMILES | phosphorylation of some signaling factors [1] | phosphorylation of some signaling factors [2]
1 | CC(=O)Nc1ccc(-c2cc(-c3ccc(F)cc3)on2)cc1 [ST-3-006, N-(4-(5-(4-fluorophenyl)isoxazole-3-yl)phenyl)acetamide] | increased | increased
2 | COc1ccc(-c2cc(-c3cccc(NC(C)=O)c3)no2)cc1 [ST-3-011, N-(3-(5-(4-methoxyphenyl)isoxazole-3-yl)phenyl)acetamide] | increased | increased
3 | COc1ccc(-c2cc(-c3ccc(NC(C)=O)cc3)no2)cc1 [ST-2-001, N-(4-(5-(4-methoxyphenyl)isoxazole-3-yl)phenyl)acetamide] |  | increased
